The values that follow come from US4650799A, “Bis-dioxopiperazine derivatives, process for their preparation, antitumor agents comprising them and compositions containing them” (Zenyaku Kogyo Kabushiki Kaisha, priority 1983, dated 1987).

Each structure is given as a SMILES string. Some results are limits rather than exact numbers.

The test system of data set [1] is Lewis lung carcinoma. Description: Animal Test on Lewis Lung Carcinoma (growth inhibition, metastasis). In kind it is in vivo, mice [BDF1 (C57BL/6×DBA/2)]. Particulars: orally, 8 days, tumor weight on 20th day. As to the method:
(§1) Antitumor activities of bis-dioxopiperazine derivatives which the present invention concerns were verified by the growth inhibition or the increase of life span in experimental animals with syngenic tumors such as P388 lymphocytic leukemia, Lewis lung carcinoma, B-16 melanoma and Colon Adenocarcinoma No. 38 as shown below.
(§2) The treated group to which the compound of the present invention was administered consisted of seven mice, while the control group consisted of ten mice. Six weeks old male mice [BDF1 (C57BL/6×DBA/2), 25±2 g of body weight] were employed as host animals.
Tumor cells (5×10^5) of Lewis lung carcinoma were transplanted subcutaneously in inguinal region of each mouse. The treatment began one day after the transplantation and the prescribed dose of each test compound was administered orally to the mice once a day for 8 days.
On the 20th day after the transplantation, the tumors of all the mice were excised and weighed. Antitumor activity of the test compound was evaluated by the rate of growth inhibition (G.I.%) which was calculated with the following formula. [formula] T: mean tumor weight of treated mice C: mean tumor weight of control mice

In data set [2] the test system is P388 lymphocytic leukemia. Description: Animal Test on P388 Lymphocytic Leukemia (increase in life span). To be noted: Mus musculus, P388, ip, i.p.; for ILS at 20 mg/kg: 20 mg/kg × 9 days. The data set is classed as in vivo, mice [CDF1 (BALB/c×DBA/2)]. As to the method:
The treated group to which the compound of the present invention was administered consisted of seven mice, while the control group consisted of ten mice. Six weeks old male mice [CDF1 (BALB/c×DBA/2), 25±2 g of body weight] were employed as host animals.
Tumor cells (1.0×10^6) of P388 lymphocytic leukemia were transplanted intraperitoneally into each mouse. The treatment began one day after the transplantation and the prescribed dose of each test compound was administered intraperitoneally to the mice once a day for 9 days or on the 1st and 5th day.
Antitumor activity of the test compound was evaluated by the rate of increase in life span (I.L.S.%) which was calculated with the following formula. [formula] T: mean survival time of treated mice C: mean survival time of control mice

In data set [3] the test system is B-16 melanoma. Description: Animal Test on B-16 Melanoma (increase in life span). In kind it is in vivo, mice [BDF1 (C57BL/6×DBA/2)]. Particulars: Mus musculus, B16, ip, 192 h; 20 mg/kg daily, i.p., 8 days. Here is the method:
The treated group to which the compound of the present invention was administered consisted of seven mice, while the control group consisted of ten mice. Six weeks old male mice [BDF1 (C57BL/6×DBA/2) 25±2 g of body weight] were employed as host animals.
Tumor cells (5×10^5) of B-16 melanoma were transplanted intraperitoneally into each mouse. The treatment began one day after the transplantation and the prescribed dose of each test compound was administered intraperitoneally to the mice once a day for 8 days.
Antitumor activity of the test compound was evaluated by the rate of increase in life span (I.L.S.%) which was calculated in the same manner as used in the animal test on P388 lymphocytic leukemia.

For data set [4], the system named is Colon adenocarcinoma No. 38. Description: Animal Test on Colon Adenocarcinoma No. 38 (growth inhibition). In kind it is in vivo, mice [BDF1 (C57BL/6×DBA/2)]. To be noted: 60 mg/kg daily, orally, 8 days; tumor weight on 30th day. As to the method: as §1, §2
Tumor cells (40 mg of fragment) of Colon adenocarcinoma No. 38 were transplanted subcutaneously in inguinal region of each mouse. The treatment began one day after the transplantation and the prescribed dose of each test compound was administered orally to the mice once a day for 8 days.
On the 30th day after the transplantation, the tumors of all the mice were excised and weighed. Antitumor activity of the test compound was evaluated by the rate of growth inhibition (G.I.%) which was calculated in the same manner as used in the animal test on Lewis lung carcinoma.

Data set [5] in a line: Acute Toxicity Test. Particulars: mouse, in vivo. Here is the method:
The test group to which the compound of the present invention was administered consisted of ten mice. Five weeks old male mice (ddY, 23±2 g of body weight) were employed as test animals.

For data set [6] the following is noted: protic polar solvents such as water, lower alcohol; background statement on known compound; cited from earlier work.

With `CC(C)COC(=O)OCN1C(=O)CN(CCN2CC(=O)N(COC(=O)OCC(C)C)C(=O)C2)CC1=O` [1,2-bis(4-isobutoxycarbonyloxymethyl-3,5-dioxopiperazin-1-yl)ethane], the G.I. in data set [1] (50 mg/kg daily) is 54.4%; in data set [4], 68.8%. Further, the ILS at 20 mg/kg in data set [2] (216 h) worked out at 78%; in data set [3] it was 86%. Further, the ILS at 60 mg/kg in data set [2] (216 h, 60 mg/kg × 9 days) came to 175%. Further, the ILS at 200 mg/kg in data set [2] (200 mg/kg × 2 (1st and 5th day)) turned out to be 138%. Besides, the LD50 in data set [5] (ip, 14 days observation) was above 850 mg/kg; in data set [5] (po), above 1000 mg/kg.

For `O=C1CN(CCN2CC(=O)N(CN3CCOCC3)C(=O)C2)CC(=O)N1CN1CCOCC1` [1,2-bis(4-morpholinomethyl-3,5-dioxopiperazin-1-yl)ethane, reference compound], the “stability in protic polar solvents” value in data set [6] was “extremely unstable in the protic polar solvents such as water, lower alcohol and so on”. Moreover, the results for the G.I. in data set [1] (60 mg/kg daily) and in data set [4] were 22.6% and 72.8%, respectively. For the same compound, the ILS at 20 mg/kg in data set [2] (216 h) was determined as 90%; in data set [3], 40%. For the same compound, in data set [2] (100 mg/kg × 2 (1st and 5th day)), the ILS at 100 mg/kg came to 60%. Besides, the 50% lethal dose (LD50) in data set [5] (ip, 14 days observation) is 280 mg/kg; in data set [5] (po), above 1000 mg/kg.

What is called ILS is the gain in survival time of treated over control animals, in per cent. A high value points to much gain in survival. A word on the LD50: it is the dose at which mortality reaches 50%. The low end stands for a more toxic substance, the high end for a less toxic substance.
